This note sets out measurements from patent US8906935B2, “Thiazolyl- and oxazolyl-isoquinolinones and methods for using them” (priority 2008, dated 2014).

Where a name gives a salt, the structure may show the parent alone.

The target in the assay is T1, hrPARP-1 (human recombinant) (Homo sapiens, UniProt P09874).
T1 construct: purchased Trevigen
T1 sequence (P09874 whole entry): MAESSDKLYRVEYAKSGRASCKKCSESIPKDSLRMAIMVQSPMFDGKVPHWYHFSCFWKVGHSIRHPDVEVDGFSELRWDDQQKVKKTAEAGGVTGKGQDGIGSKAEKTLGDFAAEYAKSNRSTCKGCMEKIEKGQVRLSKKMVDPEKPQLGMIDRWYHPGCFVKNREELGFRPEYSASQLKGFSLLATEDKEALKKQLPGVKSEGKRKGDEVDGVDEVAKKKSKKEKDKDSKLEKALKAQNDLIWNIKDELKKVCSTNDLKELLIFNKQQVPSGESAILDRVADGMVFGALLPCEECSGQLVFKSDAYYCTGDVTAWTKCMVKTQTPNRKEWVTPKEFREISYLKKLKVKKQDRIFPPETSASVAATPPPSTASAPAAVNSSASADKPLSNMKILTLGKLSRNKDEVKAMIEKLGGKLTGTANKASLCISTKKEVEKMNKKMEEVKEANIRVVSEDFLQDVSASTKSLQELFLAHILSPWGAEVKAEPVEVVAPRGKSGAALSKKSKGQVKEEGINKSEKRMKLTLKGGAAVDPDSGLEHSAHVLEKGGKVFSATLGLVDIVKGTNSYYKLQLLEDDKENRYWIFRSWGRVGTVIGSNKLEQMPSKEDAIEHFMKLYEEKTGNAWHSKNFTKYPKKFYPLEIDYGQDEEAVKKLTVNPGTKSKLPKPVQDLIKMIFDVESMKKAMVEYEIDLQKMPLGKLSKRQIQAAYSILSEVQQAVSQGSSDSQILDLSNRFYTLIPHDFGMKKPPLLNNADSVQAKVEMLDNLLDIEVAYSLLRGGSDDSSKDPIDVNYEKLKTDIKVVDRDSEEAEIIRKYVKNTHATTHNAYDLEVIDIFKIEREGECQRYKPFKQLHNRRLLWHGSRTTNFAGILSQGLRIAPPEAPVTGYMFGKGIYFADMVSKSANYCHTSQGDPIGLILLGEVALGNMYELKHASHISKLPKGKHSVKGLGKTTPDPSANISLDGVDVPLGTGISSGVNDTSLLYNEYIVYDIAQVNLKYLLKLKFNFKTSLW
Briefly: Functional assessment of human PARP-1 enzymatic activity. The format is biochemical. As to conditions: 1 U hrPARP-1, 15 μg/mL activated DNA, 5 μM NAD+, 20 min room temperature, fluorescence readout. The protocol: Functional Assessment of Human PARP-1 Enzymatic Activity
hrPARP-1 (human recombinant, Trevigen), Activated DNA (Sigma), 6(5H)-phenanthridinone (PND), (Sigma), NAD+ (Calbiochem), PARP-1 assay buffer (50 mM Tris, 2 mM MgCl2, pH 8.0), 20% acetophenone in EtOH, 2 M KOH 88% formic acid, 110° C. oven, Flexstation Plate Reader.
Compound plates were prepared by making a series of 1:3 dilutions for each tested compound, 10 steps of each at 20 μL in DMSO starting from a concentration of 5 mM. NAD^+ (39 μL of a 6.4 μM solution) were added to each well of a 96-well flat bottom fluorescent assay plate. Test compound (1 μL) was added to each well. To initiate the reaction, 10 μL of PARP (contains 5 U of PARP and 75 μg/mL activated DNA) was added with a final 1 U hrPARP-1, 15 μg/mL activated DNA and 5 μM of NAD^+. The highest concentration used for test compounds was 100 μM. The plates were incubated at room temperature on a shaker, After 20 min, 20 μL of 2 M KOH and 20 μL of 20% acetophenone were added. The plate was incubated 10 min. at 4° C., and 90 μL of 88% formic acid was added. After incubating in a 110° C. oven for 5 min, the plate was cooled to room temperature and read of a Flexstation Plate Reader (excitation at 360 nm, emission at 445 nm).
LSW data analysis software was used to generate PARP-1 IC50s.
In the case of `CN(C)Cc1nc2c([nH]c(=O)c3ccccc32)s1` [Example 1, 2-[(Dimethylamino)methyl][1,3]thiazolo[5,4-c]isoquinolin-5(4H)-one hydrochloride], the IC50 (commonly the midpoint of a concentration-inhibition curve) turned out to be 378 nM.
The value for `CN(C)CC#Cc1nc2c([nH]c(=O)c3ccccc32)s1` [Example 2, 2-[3-(Dimethylamino)prop-1-yn-1-yl][1,3]thiazolo[5,4-c]isoquinolin-5(4H)-one] was 414 nM; that for `CN(C)CCc1nc2c([nH]c(=O)c3ccccc32)s1` [Example 3, 2-(2-(Dimethylamino)ethyl)thiazolo[5,4-c]isoquinolin-5(4H)-one] was 358 nM; that for `CN(C)Cc1nc2c([nH]c(=O)c3cccc(O)c32)s1` [Example 4, 2-((Dimethylamino)methyl)-9-hydroxythiazolo[5,4-c]isoquinolin-5(4H)-one] was 99 nM.
Regarding `O=c1[nH]c2sc(CN3CCOCC3)nc2c2c(O)cccc12` [Example 5, 9-Hydroxy-2-(morpholin-4-ylmethyl)[1,3]thiazolo[5,4-c]isoquinolin-5(4H)-one], the IC50 came out at 18.3 nM.
Under `O=c1[nH]c2sc(CN3CCCCC3)nc2c2c(O)cccc12` [Example 6, 9-Hydroxy-2-(piperidin-1-ylmethyl)[1,3]thiazolo[5,4-c]isoquinolin-5(4H)-one] stands 1370 nM.
Under `O=c1[nH]c2sc(CN3CCCC3)nc2c2c(O)cccc12` [Example 7, 9-Hydroxy-2-(pyrrolidin-1-ylmethyl)[1,3]thiazolo[5,4-c]isoquinolin-5(4H)-one] stands 111 nM.
Turning to `CN(C)[C@@H]1CCN(Cc2nc3c([nH]c(=O)c4cccc(O)c43)s2)C1` [Example 8, 2-{[(3R)-3-(dimethylamino)pyrrolidin-1-yl]methyl}-9-hydroxy[1,3]thiazolo[5,4-c]isoquinolin-5(4H)-one], the IC50 is 223 nM.
Regarding `O=c1[nH]c2sc(CN3CCCC4CCCCC43)nc2c2c(O)cccc12` (stereo not shown) [Example 9, 9-Hydroxy-2-(octahydroquinolin-1(2H)-ylmethyl)[1,3]thiazolo[5,4-c]isoquinolin-5(4H)-one], the IC50 turned out to be 2450 nM.
The value for `C[C@@H]1CN(Cc2nc3c([nH]c(=O)c4cccc(O)c43)s2)C[C@H](C)O1` [Example 10, 2-{[(2R,6S)-2,6-Dimethylmorpholin-4-yl]methyl}-9-hydroxy[1,3]thiazolo[5,4-c]isoquinolin-5(4H)-one] was 3090 nM; that for `CC1CCCN1Cc1nc2c([nH]c(=O)c3cccc(O)c32)s1` (stereo not shown) [Example 11, 9-Hydroxy-2-[(2-methylpyrrolidin-1-yl)methyl][1,3]thiazolo[5,4-c]isoquinolin-5(4H)-one] was 747 nM.
Under `O=c1[nH]c2sc(CN3CCC[C@@H]3C(F)(F)F)nc2c2c(O)cccc12` [Example 12, 9-Hydroxy-2-{[(2R)-2-(trifluoromethyl)pyrrolidin-1-yl]methyl}[1,3]thiazolo[5,4-c]isoquinolin-5(4H)-one] stands 3500 nM; under `C[C@@H]1CCC[C@H](C)N1Cc1nc2c([nH]c(=O)c3cccc(O)c32)s1` [Example 13, 2-{[(2R,6S)-2,6-Dimethylpiperidin-1-yl]methyl}-9-hydroxy[1,3]thiazolo[5,4-c]isoquinolin-5(4H)-one], 1500 nM.
